Our source for the EC50 values is patent US7547804B2, “Compounds, compositions, and methods employing same” (Myriad Genetics, Inc., priority 2002, dated 2009).

Each structure is given as a SMILES string.

One assay concerns LNCaP cell lines. Nature of the assay: WST-1 Cell Proliferation and Viability Assay. As to conditions: Homo sapiens; LNCaP cells, compound incubation 18-72 hours. It counts as cell-based. On the procedure:
WST-1 Cell Proliferation and Viability Assay
Cell proliferation and cell viability was assessed using the tetrazolium salt WST-1 (Roche Applied Science, Indianapolis Ind.). The assay is based on the cleavage of WST-1 (light red) by mitochondrial dehydrogenase causing the formation of formazan (dark red), which can be measured on an optical density (O.D.) reader. LNCaP cell lines were plated in 96 well tissue culture plates (Corning Costar, N.Y.) at a density of 5000 cells/well in 150 μl complete media phenol-red free (RPMI-1640 [Invitrogen, Carlsbad Calif.] and 10% fetal calf serum). This plate is termed the assay plate. After the cells are plated, they are then incubated overnight at 37 degrees Celsius in a humidified chamber containing 5% CO2 (incubator).
Compounds are added to the assay plate in 50 μl of complete media and 0.4% DMSO (v:v) making the final DMSO concentration 0.1%. The assay plate is then returned to the incubator for 18-72 hours. WST-1 reagent is then added (20 μl/well) and the plate is placed on an ELISA plate shaker for 30 minutes at room temperature. Plates are then transferred back to the incubator for an additional 3 hours. Plates are then read on a 96 well plate O.D. reader at A490-A650.
(In general: Tetrazolium assays rely on reduction of a dye to a coloured formazan, in cell work by metabolically active cells.)
The molecule `O=C(Nc1cc(C(F)(F)F)ccc1OCCc1ccc(C(F)(F)F)cc1)c1cc(Cl)ccc1O` [Compound 160] displayed an EC50 of 0.7 µM.

As for `CN(CC(=O)OC(C)(C)C)c1ccc(NC(=O)c2cc(Cl)ccc2O)c(OCCc2cccc(C(F)(F)F)c2)c1` [Compound 373], a half-maximal response (EC50) required 2.9 µM.

Turning to `COc1ccccc1CCOc1cccc(NC(=O)c2cc(-c3cccs3)ccc2O)c1` [Compound 356], the EC50 is 16 µM.

In the case of `COc1ccccc1CCOc1cccc(NC(=O)c2cc(Cl)ccc2NS(C)(=O)=O)c1` [Compound 337], the EC50 was 19 µM.

With `O=CNc1cccc(C(=O)Nc2cc(C(F)(F)F)ccc2Oc2ccc(Cl)c3ccccc23)c1O` [Compound 269], the response was half-maximal at 8 µM (EC50).

With `Cc1cc(OCCc2ccccc2)c(NC(=O)c2cc(Cl)ccc2O)cc1Cl` [Compound 153], a half-maximal effect (EC50) was put at 1 µM.

Regarding `O=C(Nc1cc(C(F)(F)F)ccc1OCCOc1ccccc1)c1cc(Cl)ccc1O` [Compound 297], the EC50 stood at 0.9 µM.

`COc1ccccc1CCOc1cccc(NC(=O)c2cc(-c3ccccc3Cl)ccc2O)c1` [Compound 350] registered an EC50 of 10 µM.

`CN(CC(=O)OC(C)(C)C)c1ccc(NC(=O)c2cc(Cl)ccc2O)cc1C(F)(F)F` [Compound 372] registered an EC50 of 2 µM.

Consider `O=C(Nc1cc(Cl)cc(Cl)c1OCCc1ccc(CC(F)(F)F)cc1)c1cc(Cl)ccc1O` [Compound 163], for which the EC50 worked out at 2 µM.

The molecule `CCN(CC)CCOc1cccc(CNc2cccc(NC(=O)c3cc(Cl)ccc3O)c2)c1` [Compound 30] showed an EC50 of 50 µM.

For the molecule `COc1ccc(CCOc2ccc(Cl)cc2NC(=O)c2cc(Cl)ccc2O)cc1` [Compound 79], it took 2 µM to reach a half-maximal effect (EC50).

Take `Cc1cccc(COc2ccc(Cl)cc2NC(=O)c2cc(Cl)ccc2O)c1` [Compound 311]: the EC50 worked out at 3 µM.

For the molecule `Cc1cccc(OCCc2ccccc2C(F)(F)F)c1NC(=O)c1cc(Cl)ccc1O` [Compound 173], a half-maximal effect (EC50) was put at 11 µM.

For `COc1ccccc1CCOc1cccc(NC(=O)c2cc(F)ccc2O)c1` [Compound 183], the EC50 came out at 19 µM.

Turning to `Cc1ccc(NC(=O)c2cc(Cl)ccc2O)c(OCCc2ccccc2)c1` [Compound 150], the EC50 came to 6 µM.

Take `Cc1ccc(OCCc2cccc(C(F)(F)F)c2)c(NC(=O)c2cc(Cl)ccc2O)c1` [Compound 157]: it took 2 µM to reach a half-maximal effect (EC50).

For `O=C(Nc1cc(C(F)(F)F)ccc1OCCCc1ccccc1)c1cc(Cl)ccc1O` [Compound 141], the EC50 came out at 1 µM.

With `O=C(Nc1cc(C(F)(F)F)ccc1OCCc1ccc(Cl)s1)c1cc(Cl)ccc1O` [Compound 254], the EC50 came to 1 µM.

As for `COc1ccccc1CCOc1cccc(NC(=O)c2cccc(C(C)C)c2O)c1` [Compound 203], the EC50 turned out to be 33 µM.

With `O=C(Nc1cccc(NCc2ccccc2)c1)c1cc(Cl)ccc1O` [Compound 28], it took 31 µM to reach a half-maximal effect (EC50).

Molecule `COCCN(C)c1ccc(NC(=O)c2cc(Cl)ccc2O)c(OCCc2cccc(C(F)(F)F)c2)c1` [Compound 369] gave an EC50 of 4 µM.

`O=C(Nc1cc(C(F)(F)F)ccc1SCCc1cccc(C(F)(F)F)c1)c1cc(Cl)ccc1O` [Compound 260] registered an EC50 of 1 µM.

Take `COC(=O)[C@H]1CCCN1c1ccc(NC(=O)c2cc(Cl)ccc2O)c(OCCc2cccc(C(F)(F)F)c2)c1` [Compound 359]: the midpoint of the response, the EC50, lay at 3.1 µM.

Consider `Cc1cccc(COc2ccc(C(F)(F)F)cc2NC(=O)c2cc(Cl)ccc2O)c1` [Compound 307], for which the EC50 is 1.8 µM.

`O=C(Nc1cc(C(F)(F)F)cc(Cl)c1OCCc1ccccc1C(F)(F)F)c1cc(Cl)ccc1O` [Compound 251] yielded an EC50 of 2 µM.

Molecule `O=C(Nc1cccc(OCc2ccc(Cl)cc2)c1)c1cc(Cl)ccc1O` [Compound 65] returned an EC50 of 17 µM.

With `Cc1cc(C)c(OCCc2ccccc2C(F)(F)F)c(NC(=O)c2cc(Cl)ccc2O)c1` [Compound 131], the EC50 is 2 µM.

`O=C(Nc1cc(Cl)ccc1OCCc1ccc(F)cc1)c1cc(Cl)ccc1O` [Compound 106] showed an EC50 of 1 µM.

`O=C(Nc1cccc(OCCc2ccccc2)c1)c1cc(F)ccc1O` [Compound 184] came in with an EC50 of 15 µM.

As to `O=C(Nc1cc(C(F)(F)F)ccc1OCCc1ccsc1)c1cc(Cl)ccc1O` [Compound 245], the EC50 came to 0.9 µM.

In turn, `COc1ccccc1CCOc1cccc(NC(=O)c2cc(-c3ccc(F)cc3F)ccc2O)c1` [Compound 223] showed an EC50 of 8 µM.

`O=C(Nc1cccc(C(F)(F)F)c1)c1cc(Cl)ccc1O` [Compound 56] had an EC50 of 1 µM.

Consider `CC(C)C(COc1ccc(C(F)(F)F)cc1NC(=O)c1cc(Cl)ccc1O)c1ccc(Cl)cc1` (stereo not drawn) [Compound 283], for which the EC50 amounted to 0.9 µM.

With `Cc1ccc(CCOc2ccc(Cl)cc2NC(=O)c2cc(Cl)ccc2O)cc1` [Compound 78], the EC50 came out at 2 µM.

In turn, `Cc1ccccc1CCOc1cccc(NC(=O)c2cc(Cl)ccc2O)c1` [Compound 55] registered an EC50 of 15 µM.

For the molecule `O=C(Nc1ccc(Cl)cc1OCCc1ccc(Cl)cc1)c1cc(Cl)ccc1O` [Compound 250], the EC50 worked out at 2 µM.

In turn, `COc1ccccc1CCOc1cccc(NC(=O)c2cc(-c3ccccc3OC)ccc2O)c1` [Compound 343] gave an EC50 of 17 µM.

The molecule `Nc1cc(Cl)cc(C(=O)Nc2cc(Cl)ccc2OCCc2ccccc2)c1O` [Compound 330] returned an EC50 of 19.7 µM.

For `Cc1cc(OCCc2ccc(CC(F)(F)F)cc2)c(NC(=O)c2cc(Cl)ccc2O)cc1Cl` [Compound 164], the EC50 was 1 µM.

Take `CC(C)OCCOc1ccc(C(F)(F)F)cc1NC(=O)c1cc(Cl)ccc1O` [Compound 296]: the response was half-maximal at 0.8 µM (EC50).

Molecule `Cc1ccc(C(=O)Nc2cccc(OCCc3ccccc3)c2)c(O)c1` [Compound 211] came in with an EC50 of 22 µM.

For the molecule `O=C(Nc1cc(Cl)ccc1OC1CCCC[C@H]1c1ccccc1)c1cc(Cl)ccc1O` (stereo partly drawn) [Compound 98], a half-maximal response (EC50) required 4 µM.

Regarding `O=C(Nc1cc(C(F)(F)F)ccc1OCCc1ccc(Cl)cc1Cl)c1cc(Cl)ccc1O` [Compound 253], it took 1 µM to reach a half-maximal effect (EC50).

`O=C(Nc1cc(C(F)(F)F)ccc1SCCc1ccccc1)c1cc(Cl)ccc1O` [Compound 259] registered an EC50 of 1 µM.

For the molecule `Cc1ccc(OCCc2ccccc2C(F)(F)F)c(NC(=O)c2cc(Cl)ccc2O)c1` [Compound 142], the EC50 was found to be 3 µM.

The molecule `COC(=O)CCc1ccccc1CCOc1ccc(Cl)cc1NC(=O)c1cc(Cl)ccc1O` [Compound 303] gave an EC50 of 3.3 µM.

The molecule `COc1ccc(CCOc2ccc(Cl)c(NC(=O)c3cc(Cl)ccc3O)c2)cc1` [Compound 37] gave an EC50 of 3 µM.

In turn, `O=C(Nc1cc(C(F)(F)F)cc(Cl)c1OCCc1ccc(C(F)(F)F)cc1)c1cc(Cl)ccc1O` [Compound 130] yielded an EC50 of 2 µM.

`O=C(Nc1cc(C(F)(F)F)cc(C(F)(F)F)c1)c1cc(Cl)ccc1O` [Compound 169] came in with an EC50 of 2 µM.

`O=C(Nc1cccc(OCCc2cccc(C(F)(F)F)c2)c1)c1cc(Cl)ccc1O` [Compound 125] yielded an EC50 of 6 µM.

As for `COc1ccc(C(=O)Nc2cccc(OCCc3ccccc3)c2)c(O)c1` [Compound 185], the EC50 worked out at 32 µM.

As for `O=C(Nc1cccc(OCC2(c3ccccc3)CC2)c1)c1cc(Cl)ccc1O` [Compound 44], the EC50 stood at 5 µM.

`CCN(Cc1ccncc1)c1ccc(NC(=O)c2cc(Cl)ccc2O)c(OCCc2cccc(C(F)(F)F)c2)c1` [Compound 377] yielded an EC50 of 4 µM.

For `COc1ccccc1CCOc1cccc(NC(=O)c2cc(-c3cccc(C(F)(F)F)c3)ccc2O)c1` [Compound 352], a half-maximal response (EC50) required 7 µM.

Take `O=CNc1cc(Cl)cc(C(=O)Nc2cc(Cl)ccc2OCCc2ccccc2)c1O` [Compound 331]: the EC50 came out at 12.4 µM.

As for `O=C(Nc1cc(Cl)ccc1OCCc1ccccc1Cl)c1cc(Cl)ccc1O` [Compound 110], the EC50 was 1 µM.

In turn, `O=C(Nc1cc(C(F)(F)F)ccc1OCCc1ccccc1)c1cc(Cl)ccc1O` [Compound 104] returned an EC50 of 0.8 µM.

As to `O=C(Nc1cc(Cl)ccc1OCC(c1ccccc1)c1ccccc1)c1cc(Cl)ccc1O` [Compound 117], it took 2 µM to reach a half-maximal effect (EC50).

In the case of `CN1CCN(c2ccc(C(F)(F)F)cc2NC(=O)c2cc(Cl)ccc2O)CC1` [Compound 309], it took 17.4 µM to reach a half-maximal effect (EC50).

`O=C(Nc1cc(C(F)(F)F)ccc1OCc1cccc(OC(F)(F)F)c1)c1cc(Cl)ccc1O` [Compound 334] had an EC50 of 9 µM.

Staying with this assay, now noted: Homo sapiens; LNCaP cells; flagged "Estimated": based on actual data at different concentrations.
Turning to `Cc1c(CNC(=O)c2cc(Cl)ccc2O)cccc1-c1ccccc1` [Compound 120], the EC50 is 18 µM.

Consider `O=C(Nc1cccc(OCCc2ccccc2)c1)c1cc(Cl)cc([N+](=O)[O-])c1O` [Compound 123], for which the EC50 is 30 µM.

For `O=C(NCc1ccc(Cl)c(C(F)(F)F)c1)c1cc(Cl)ccc1O` [Compound 290], the EC50 was 30 µM.

With `O=C(Nc1cccc(OCCc2ccccc2)c1)c1cccc(O)c1` [Compound 227], the EC50 is 22 µM.

As to `O=C(Nc1cccc(OCc2ccc3c(c2)OCO3)c1)c1cc(Cl)ccc1O` [Compound 86], the EC50 is 30 µM.

As for `O=C(NCc1cccc(-c2ccccc2)c1)c1cc(Cl)ccc1O` [Compound 238], the EC50 is 30 µM.

In the case of `COc1ccccc1CCOc1cccc(NC(=O)c2cc(Cl)ccc2[N+](=O)[O-])c1` [Compound 229], the EC50 is 30 µM.

As to `O=C(NCc1ccc(Cl)c(-c2ccccc2)c1)c1cc(Cl)ccc1O` [Compound 292], the EC50 is 30 µM.

By EC50 is commonly meant the concentration needed to bring the measured effect to its halfway point.
